Experiments:
[1] = Highest frequency of moderate liver toxicity observed during clinical trials, expressed as a percentage. [column '% BIOL' in source]; conditions: human
[2] = Highest frequency of acute liver toxicity observed during clinical trials, expressed as a percentage. [column '% AIGUE' in source]; conditions: human
[3] = human
[4] = human, serum
[5] = human; remark: listed apart in the source
[6] = human; remark: listed apart in the source
[7] = human; remark: listed apart in the source
[8] = human, serum; remark: listed apart in the source
[9] = human; remark: listed apart in the source
[10] = human; remark: listed apart in the source
[11] = human; remark: listed apart in the source
[12] = Comments (NB not yet translated). [column 'COMMENTAIRES' in source]; conditions: human
[13] = human; remark: listed apart in the source
[14] = human, serum, 4383 h
[15] = human; remark: listed apart in the source
[16] = Times to onset, minimal and maximal, observed in the indexed observations. [column 'DELAI' in source]; conditions: human
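For Hepatotoxicity (association with vascular disease) in this document: count of indexed literature references reporting vascular liver injury in humans, e.g. peliosis hepatitis, hepatic veno-occlusive disease or Budd-Chiari syndrome.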
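For Hepatotoxicity (benign tumour) in this document: value is a count of indexed literature references citing a benign tumour confirmed by histopathology.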
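For Hepatotoxicity (choleostasis) in this document: human cholestatic liver injury, shown by histopathology or by peak ALT or AST elevation over alkaline phosphatase ratio below 2, value counts indexed literature reports.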
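For Hepatotoxicity (chronic liver disease) in this document: chronic liver injury confirmed by histopathology or persistently raised serum aminotransferase activity beyond 6 months, value given as the count of indexed literature references.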
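For Hepatotoxicity (cirrhosis) in this document: value is a count of indexed literature references reporting cirrhosis confirmed by histopathology.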
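For Hepatotoxicity (cytolytic) in this document: human cytolytic liver injury, shown by histopathology or by a ratio above 5 of peak ALT or AST elevation to alkaline phosphatase elevation, value counts indexed references.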
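For Hepatotoxicity (granulomatous hepatitis) in this document: value is a count of indexed literature references reporting granulomatous liver disease confirmed by histopathology.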
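For Hepatotoxicity (malignant tumour) in this document: malignant tumour confirmed by histopathology, value gives the count of indexed literature references reporting it.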
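For Hepatotoxicity (severe hepatitis) in this document: human clinical data: severe hepatitis, meaning potentially life-threatening liver failure or clinically observed cases, the value counts how many indexed literature references report it.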
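For Hepatotoxicity (steatosis) in this document: steatosis confirmed by histopathology, value is the count of indexed references.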

| Structure (SMILES) | Hepatotoxicity (moderate) [1] [%] | Hepatotoxicity (acute) [2] [%] | Hepatotoxicity (malignant tumour) [3] | Hepatotoxicity (moderate) [4] | Hepatotoxicity (severe hepatitis) [5] | Hepatotoxicity (granulomatous hepatitis) [6] | Hepatotoxicity (association with vascular disease) [7] | Hepatotoxicity (acute) [8] | Hepatotoxicity (cytolytic) [9] | Hepatotoxicity (benign tumour) [10] | Hepatotoxicity (cirrhosis) [11] | Hepatotoxicity (comment) [12] | Hepatotoxicity (choleostasis) [13] | Hepatotoxicity (chronic liver disease) [14] | Hepatotoxicity (steatosis) [15] | Hepatotoxicity (time to onset) [16] | Hepatotoxicity (moderate) ([1]; Liver) [%] | Hepatotoxicity (acute) ([2]; Liver) [%] | Hepatotoxicity (severe hepatitis) ([5]; Liver) |
| --- | --- | --- | --- | --- | --- | --- | --- | --- | --- | --- | --- | --- | --- | --- | --- | --- | --- | --- | --- |
| C[C@]12C=CC(=O)C=C1CC[C@@H]1[C@@H]2[C@@H](O)C[C@@]2(C)[C@H]1CC[C@]2(O)C(=O)CO [PREDNISOLONE] | 0 | 0 | 0 | 0 | 2 | 0 | 0 | 2 | 2 | 1 | 0 | AGGRAVATION_ANGIOMES | 0 | 0 | 2 | 6 days - 8 years |  |  |  |
| CN1CCN(CCCN2c3ccccc3Sc3ccc(Cl)cc32)CC1 [PROCHLORPERAZINE] | 0 | 0 | 0 | 0 | 3 | 0 | 0 | 9 | 3 | 0 | 0 | I/IPRONIAZIDE CHOLESTASE_PROLONGEE DUCTOPENIE | 6 | 3 | 0 | 1 week - 4 months |  |  |  |
| CC(=O)[C@H]1CC[C@H]2[C@@H]3CCC4=CC(=O)CC[C@]4(C)[C@H]3CC[C@]12C [PROGESTERONE] | 13.3 | 0 | 0 | 2 | 0 | 0 | 0 | 3 | 2 | 1 | 0 | HNF | 1 | 0 | 0 | 1 week - 40 weeks |  |  |  |
| O=C(c1ccc(OCCN2CCCCC2)cc1)c1c(-c2ccc(O)cc2)sc2cc(O)ccc12 [RALOXIFENE] | 16.7 | 0 | 0 | 1 | 0 | 0 | 0 | 1 | 0 | 0 | 0 | CHOLESTASE_PROLONGEE | 1 | 0 | 0 | 30 days |  |  |  |
| Cc1nc2n(c(=O)c1CCN1CCC(c3noc4cc(F)ccc34)CC1)CCCC2 [RISPERIDONE] | 6 | 4 | 0 | 4 | 0 | 0 | 0 | 6 | 5 | 0 | 0 | PERICHOLANGITE HYPERBILIRUBINEMIE | 2 | 0 | 4 | 2 days - 1 year |  |  |  |
| C#CCN(C)[C@H](C)Cc1ccccc1 [SELEGILINE] | 4 | 0 | 0 | 2 | 0 | 0 | 0 | 1 | 0 | 0 | 0 | CHOLESTASE_PROLONGEE | 1 | 0 | 0 | 3 months |  |  |  |
| C[C@]12Cc3c[nH]nc3C[C@@H]1CC[C@@H]1[C@@H]2CC[C@@]2(C)[C@H]1CC[C@]2(C)O [STANOZOLOL] | 26.1 | 0 | 2 | 6 | 1 | 0 | 0 | 6 | 2 | 3 | 0 | ANGIOSARCOME HNF | 4 | 0 | 0 | 1 month - 20 years |  |  |  |
| CCN1CCCC1CNC(=O)c1cc(S(N)(=O)=O)ccc1OC (stereo not drawn) [SULPIRIDE] | 4 | 0 | 0 | 3 | 1 | 0 | 0 | 3 | 0 | 0 | 0 | DUCTOPENIE | 1 | 0 | 0 | 1 week - 3 months |  |  |  |
| Cc1ccc(C(=O)Nc2ccc(S(=O)(=O)O)c3cc(S(=O)(=O)O)cc(S(=O)(=O)O)c23)cc1NC(=O)c1cccc(NC(=O)Nc2cccc(C(=O)Nc3cc(C(=O)Nc4ccc(S(=O)(=O)O)c5cc(S(=O)(=O)O)cc(S(=O)(=O)O)c45)ccc3C)c2)c1 [SURAMIN] | 63 | 6.3 | 0 | 11 | 1 | 0 | 0 | 3 | 1 | 0 | 0 | REACTIVATION_HVB | 0 | 0 | 0 | 1 week - 8 months |  |  |  |
| CC(C)(C)NCC(O)c1cc(O)cc(O)c1 (stereo not drawn) [TERBUTALINE] | 0 | 0 | 0 | 0 | 0 | 0 | 0 | 2 | 2 | 0 | 0 | VOIR_BAMBUTEROL | 0 | 0 | 0 | 4 weeks - 8 weeks |  |  |  |
| C[C@]12CC[C@H]3[C@@H](CCC4=CC(=O)CC[C@@]43C)[C@@H]1CC[C@@H]2O [TESTOSTERONE] | 0 | 0 | 2 | 0 | 1 | 0 | 6 | 3 | 0 | 3 | 0 | ANGIOSARCOME CHOLESTASE_PROLONGEE PELIOSE | 3 | 0 | 0 | 3 months - 11 years |  |  |  |
| O=C1CCC(N2C(=O)c3ccccc3C2=O)C(=O)N1 (stereo not drawn) [THALIDOMIDE] | 5.6 | 0 | 0 | 3 | 0 | 0 | 0 | 2 | 2 | 0 | 0 | REACTIVATION_HVC | 0 | 0 | 0 | 5 days - 7 months |  |  |  |
| CSc1ccc2c(c1)N(CCC1CCCCN1C)c1ccccc1S2 (stereo not drawn) [THIORIDAZINE] |  |  | 0 | 2 |  | 0 | 0 | 5 | 2 | 0 | 0 | RC/CHLORPROMAZINE | 5 | 1 | 0 | 1 week - 1 year | 0 | 0 | 1 |

— ChEMBL document CHEMBL3137667, “[Drug-induced liver injury; fourteenth updated edition of the bibliographic database of liver injuries and related drugs]” (Gastroenterol Clin Biol, 2004)
